Test system: H1 human embryonic stem cells
Test: MTS assay of cell proliferation during definitive endoderm differentiation (Example 23)
Type: cell-based
Settings: 100 ng/ml growth factor with 8 ng/ml bFGF, with or without Wnt3a
Experimental: Stock cultures of human embryonic stem cells (H1 human embryonic stem cell line) were maintained in an undifferentiated, pluripotent state on reduced growth factor […]™ (BD Biosciences; Cat #356231)-coated dishes in MEF conditioned medium with passage on average every four days. Passage was performed by exposing cell cultures to a solution of 1 mg/ml dispase (Invitrogen, Cat #: 17105-041) for 5 to 7 minutes at 37° C. followed by rinsing the monolayer with MEF conditioned culture medium and gentle scraping to recover cell clusters. Clusters were centrifuged at low speed to collect a cell pellet and remove residual dispase. Cell clusters were split at a 1:3 or 1:4 ratio for routine maintenance culture or a 1:1 ratio for immediate assay. All human embryonic stem cell lines were maintained at passage numbers less than 50 and routinely evaluated for normal karyotypic phenotype and for absence of mycoplasma contamination. […]
At the conclusion of 24, 48, or 72 hours of culture, one set of assay plates was subjected to a MTS assay (Promega; Cat#G3581), following the manufacturer's instructions. In brief, 20 μl of MTS was added to each well, and assay plates were incubated at 37° C., 5% CO2 for four hours prior to taking OD490 readings. […]

Row | Substance | OD490 (MTS) over the three day assay, control treatments
1 | GDF-8: growth factor GDF-8, also known as myostatin, member of the TGF-β family | decrease in OD490 relative to activin A treatment
2 | Activin A: recombinant human activin A (PeproTech), TGF-beta family member | incremental increases in OD490

Reference: patent US9593305B2, “Differentiation of pluripotent stem cells” (Janssen Biotech, Inc., priority 2008, dated 2017)
